According to US11697852B2, “Systems and methods for determining a treatment course of action” (The Regents of the University of Michigan, priority 2013, dated 2023):
“Also recorded” adds a separate entry of the source.

Experiments:
[1] = system: ESR1 mutations p.Leu536Gln, p.Tyr537Ser, p.Asp538Gly, p.Tyr537Cys, p.Tyr537Asn; test: ERE-luciferase reporter assay, ESR1 LBD mutants; assay type: cell-based, human; settings: for inhibition of the 5 LBD mutations of ESR1 (reporter activity): ERE-luciferase, increasing doses with 5 nM β-estradiol for 24 hrs (FIG. 4)
Description: (§1) cDNA for the wild type ESR1 was PCR amplified from a breast cell line MCF7 with the introduction of an N-terminal FLAG tag. cDNA encoding the relevant mutations of ESR1 were generated by site-directed mutagenesis (QuikChange, Agilent) and full-length constructs were fully sequenced. All the ESR1 variants were placed in the Lentivial vector pCDH (System Biosciences) for eukaryotic expression.
(§2) For cell transfection experiments, HEK-293T cells were plated at a density of 1−2×10^5 per well (24-well plates) in phenol red-free Dulbecco's modified Eagle's medium (DMEM) containing 10% fetal bovine serum (FBS) and antibiotics. Once cells attached, replaced medium with DMEM containing 10% charcoal-dextran treated FBS (HyClone) and cultured overnight. The next day, cells were transiently co-transfected with ESR1-expression plasmid at 50 ng/well and luciferase reporter constructs at 25 ng per well (SABiosciences) using the FuGene 6 reagent (Promega). The ER-responsive luciferase plasmid encoding the firefly luciferase reporter gene is driven by a minimal CMV promoter and tandem repeats of the estrogen transcriptional response element (ERE). A second plasmid constitutively expressing Renilla luciferase is served as an internal control for normalizing transfection efficiencies (Cignal ERE Reporter, SABiosciences). After transfection for 18 hrs, cells were serum-starved for a few hours before treatment with 13-estradiol or anti-estrogen drugs. Cells were harvested 18 hr post-treatment, and luciferase activity was measured using the Dual-Luciferase Reporter Assay System (Promega). IC50 values were computed using the GraphPad Prizm application to fit a four parameter doseresponse curve.
It was next assessed whether tumor types other than ER positive metastatic hormone-resistant breast cancer also acquire ligand binding mutations in ESR1. The Cancer Genome Atlas Project (TCGA), which has generated whole exome data on 27 tumor types across at least 4000 individual samples was utilized. […] Steroid hormone deprived cells were then exposed to β-estradiol for 24 hours and ER reporter levels assessed.

[2] = biological target: T1, wild type ESR1 (Homo sapiens, UniProt P03372); test: ERE-luciferase reporter assay, wild type ESR1; assay type: cell-based; settings: HEK-293T cells co-transfected with ESR1 plasmid 50 ng and ERE-luciferase; in presence of β-estradiol (FIGS. 4, 8, 9, 10)
T1 construct: expressed in transfected cells; host or cells: HEK-293T
T1 sequence (P03372 1-595): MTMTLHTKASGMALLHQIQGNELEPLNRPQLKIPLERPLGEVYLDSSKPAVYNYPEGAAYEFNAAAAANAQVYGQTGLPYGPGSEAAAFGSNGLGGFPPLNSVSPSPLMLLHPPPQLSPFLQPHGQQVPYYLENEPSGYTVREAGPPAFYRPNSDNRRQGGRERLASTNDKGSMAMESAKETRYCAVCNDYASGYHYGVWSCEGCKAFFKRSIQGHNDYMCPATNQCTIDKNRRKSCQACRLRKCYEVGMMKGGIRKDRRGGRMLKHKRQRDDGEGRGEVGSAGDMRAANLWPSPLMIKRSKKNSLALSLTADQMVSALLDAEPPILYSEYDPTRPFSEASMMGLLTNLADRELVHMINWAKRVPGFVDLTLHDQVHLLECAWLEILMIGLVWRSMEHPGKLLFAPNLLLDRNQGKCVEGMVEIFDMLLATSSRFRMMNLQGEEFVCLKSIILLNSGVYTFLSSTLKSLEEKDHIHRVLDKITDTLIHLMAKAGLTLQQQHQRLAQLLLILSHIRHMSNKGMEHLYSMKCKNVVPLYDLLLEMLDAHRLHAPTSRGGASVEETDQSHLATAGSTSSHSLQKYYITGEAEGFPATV
Description: as §1
as §2, with “Once” for “For cell transfection experiments, HEK-293T cells were plated at a density of 1−2×10^5 per well (24-well plates) in phenol red-free Dulbecco's modified Eagle's medium (DMEM) containing 10% fetal bovine serum (FBS) and antibiotics. Once”, “IC50 values were computed using the GraphPad Prizm application to fit a four parameter doseresponse curve.” left out

Molecule	maximal inhibition for all the mutants tested ([1]; ERE-luciferase dose response in competition with 1 nM estradiol (FIGS. 8 and 9))	inhibition of the 5 LBD mutations of ESR1 (reporter activity) [1]	inhibition of wild-type ER reporter (transactivation) activity [2]
C[C@]12CC[C@@H]3c4ccc(O)cc4C[C@@H](CCCCCCCCC[S+]([O-])CCCC(F)(F)C(F)(F)F)[C@H]3[C@@H]1CC[C@@H]2O (stereo partly shown) [fulvestrant, Fulvestrant]	greater maximal inhibition than 4-hydroxytamoxifen	in a dose-dependent fashion; also recorded: continue to be responsive	–
CC/C(=C(\c1ccccc1)c1ccc(OCCN(C)C)cc1)c1ccccc1 [tamoxifen]	–	in a dose-dependent fashion; also recorded: continue to be responsive	–
(Z)-4-Hydroxytamoxifen	–	–	inhibited in a dose-dependent fashion
